For data set [1], the target named is T1, cathepsin D (Homo sapiens, UniProt P07339).
T1 construct: endogenous in cells
As to the kind of experiment: Cathepsin D activity assay (SENSOLYTE 520). The format is cell-based. The note with it: concentrations as high as 27 μM. The protocol:
Cathepsin B, H, L, S activity was measured with pan-cathepsin substrate Z-FR-amc (Kirschke & Wiederanders (1994) Methods Enzymol. 244:500-11) in extracts of cytosol-less cells at pH 6.0 (Screen, et al. (2010) supra). Cathepsin D activity was measured in cytosol-less extracts using SENSOLYTE 520 Cathepsin D Fluorometric Assay Kit (AnaSpec). Combined cathepsin D and E activity was measured using the same kit, in which cathepsin D substrate provided with the kit was replaced with 7-Methoxycoumarin-[…](Dnp)-X′-NH2 (SEQ ID NO:10; where “X′” stand for D-Arg) internally quenched fluorogenic substrate of cathepsin D and E. In this case, pH 3.0 assay buffer used for cell extraction. All activity observed using both procedures was inhibited by more than 98% by specific inhibitor of aspartic proteases pepstatin A.

Data set [2] deals with peripheral blood mononuclear cells (PBMNCs). As to the kind of experiment: CELL TITER-GLO viability of PBMNCs. The format is cell-based. The note with it: cells from three donors. The protocol:
RPMI-8226 and NCI-H929 cells were cultured in RPMI-1640 supplemented with 10% fetal bovine serum, penicillin, streptomycin, and plasmocin in 5% CO2 humidified incubator. HEK-293T cells were cultured in DMEM containing 10% fetal calf serum, 10 units/mL penicillin, and 10 μg/mL streptomycin in a 7% CO2 humidified incubator. Viability of multiple myeloma cells was measured with ALAMAR BLUE mitochondrial dye conversion assay. Viability of peripheral blood mononuclear cells (PBMNCs) was measured using CELL TITER-GLO luminescent cell viability assay (Promega), which is based on quantification of ATP present in the cells. Caspase-3/7 activity was measured using APO-ONE 3/7 homogeneous assay (Promega).

Data set [3] has as its system β2 and β2i sites. Put plainly: MV-151 label-competition in extracts of RPMI-8226 MM cells. In kind it is biochemical. As to conditions: extracts of RPMI-8226 cells, MV-151 probe. The text has this:
Multiple myeloma cells express constitutive proteasomes and immunoproteasomes, and substrates used for the measurement of activity were cleaved by both. To determine whether there were any differences in inhibition of constitutive proteasomes or immunoproteasomes by NC-002, NC-012, and NC-022, the fluorescent activity-based probe MV-151 (Verdoes, et al. (2006) Chem. Biol. 13:1217-1226) was used in a label-competition experiment. Extracts of RPMI-8226 MM cells (which express more immunoproteasomes than NCI-H929 cells) were treated first with the NC inhibitors and then with the MV-151 probe. This was followed by fractionation on SDS-PAGE to separate proteasome subunits and imaging to reveal those subunits labeled by the probe (i.e., unmodified by the inhibitors).

Data set [4] has as its target T2, trypsin-like sites (β2) of proteasome in MM cells (Homo sapiens, UniProt Q99436).
T2 construct: endogenous in cells; host or cells: NCI-H929, RPMI-8226 and other MM cell lines
T2 sequence (Q99436 44-277): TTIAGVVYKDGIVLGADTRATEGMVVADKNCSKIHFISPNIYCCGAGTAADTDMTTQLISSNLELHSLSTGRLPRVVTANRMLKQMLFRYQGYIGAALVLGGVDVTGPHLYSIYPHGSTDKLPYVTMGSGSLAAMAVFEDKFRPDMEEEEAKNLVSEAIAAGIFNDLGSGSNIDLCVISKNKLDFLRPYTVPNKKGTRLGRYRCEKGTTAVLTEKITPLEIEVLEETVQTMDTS
As to the kind of experiment: PROTEASOMEGLO assay of proteasome inhibition in MM cells. In kind it is cell-based. As to conditions: for IC50: 6 hours, >>30 no inhibition at 30 μM, >30 inhibition 10-50% at 30 μM, read-out: IC50 for sites: Tr-L.

Data set [5] deals with T3, chymotrypsin-like sites (β5) of proteasome in MM cells.
T3 construct: other: NCI-H929; bortezomib 100 nM 1 h; bortezomib 11 nM 1 h; bortezomib 3.7 nM 1 h; bortezomib 33 nM 1 h; other: NCI-H9
Described as above. As to conditions: 6 hours, >>30 no inhibition at 30 μM, >30 inhibition 10-50% at 30 μM, read-out: IC50 for sites: Chym-L. In kind it is cell-based.

The subject of data set [6] is trypsin-like sites (β2) of proteasome in MM cells. The data set is described as above. In kind it is cell-based.
Data set [7] concerns the target caspase-like site of 26S proteasomes (Oryctolagus cuniculus, UniProt A0A5F9DQW2). Put plainly: Inhibition of purified 26S proteasomes, substrate Ac-nLPnLD-amc. In kind it is biochemical, rabbit. As to conditions: >>30 no inhibition at 30 μM, >30 inhibition between 10 and 50% at 30 μM, read-out: IC50 for sites in 26S proteasomes: Casp-L.
The target in data set [8] is T4, caspase-like sites (β1) of proteasome in MM cells (Homo sapiens, UniProt P28072+Q99436).
T4 sequence (P28072 35-239): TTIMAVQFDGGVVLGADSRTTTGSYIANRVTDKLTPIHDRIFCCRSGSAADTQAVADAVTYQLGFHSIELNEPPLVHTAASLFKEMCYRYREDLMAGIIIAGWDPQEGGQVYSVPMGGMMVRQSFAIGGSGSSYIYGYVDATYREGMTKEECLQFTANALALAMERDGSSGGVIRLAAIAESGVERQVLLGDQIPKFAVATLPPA
T4 sequence (Q99436 44-277): T2 sequence (Q99436 44-277)
Put plainly: PROTEASOMEGLO assay of proteasome inhibition in MM cells. In kind it is cell-based. The note with it: 6 hours, >>30 no inhibition at 30 μM, >30 inhibition 10-50% at 30 μM, read-out: IC50 for sites: Casp-L.

Read-outs that look alike come from different tables or passages of the source. Some results are limits rather than exact numbers.

Sequence of caspase-like site of 26S proteasomes (A0A5F9DQW2 1-212): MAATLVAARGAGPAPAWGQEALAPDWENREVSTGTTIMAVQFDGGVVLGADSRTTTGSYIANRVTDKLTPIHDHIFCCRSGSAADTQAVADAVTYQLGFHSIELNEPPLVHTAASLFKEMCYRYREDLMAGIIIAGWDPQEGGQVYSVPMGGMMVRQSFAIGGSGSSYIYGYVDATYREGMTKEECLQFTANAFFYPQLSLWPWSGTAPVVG
T1 sequence (P07339 65-412): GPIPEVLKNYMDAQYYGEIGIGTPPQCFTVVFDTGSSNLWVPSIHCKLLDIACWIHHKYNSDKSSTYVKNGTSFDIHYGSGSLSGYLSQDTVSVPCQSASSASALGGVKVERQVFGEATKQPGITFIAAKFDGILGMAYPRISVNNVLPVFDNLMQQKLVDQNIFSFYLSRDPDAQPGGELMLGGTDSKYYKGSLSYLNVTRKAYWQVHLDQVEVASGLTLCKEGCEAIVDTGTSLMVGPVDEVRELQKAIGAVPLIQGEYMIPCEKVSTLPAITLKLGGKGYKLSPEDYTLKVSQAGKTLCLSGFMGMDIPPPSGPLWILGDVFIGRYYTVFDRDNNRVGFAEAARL

In the case of `Cc1c(O)cccc1C(=O)N[C@H](C(=O)N[C@@H](CO)C(=O)N[C@@H](CCCNC(=N)N)C(=O)[C@@]1(C)CO1)C(C)C` [NC-022, HMB-Val-Ser-Arg-ek], the “inhibition of cathepsin D” value in data set [1] is given as “did not inhibit”. In data set [2], the “sensitization of PBMNCs to bortezomib and carfilzomib” value is “did not sensitize cells”. Also, in data set [3], the “inhibition of constitutive (β2) versus immunoproteasome (β2i) trypsin-like sites” value was “equipotent inhibitors of the trypsin-like sites of constitutive and immunoproteasomes”. In data set [4] (3 μM NC-022, within 4-6 hours after addition), this molecule returned an inhibition at 3 µM of 90%. The “inhibition of trypsin-like activity by NC-022 treatment” value in data set [4] (NCI-H929 and KMS-12-BM, 5 hours after NC-022 addition) is reported as “that trypsin-like activity was inhibited by >90% but inhibition of the chymotrypsin-like activity was not altered by NC-022 treatment”. For the same molecule, in data set [4] (NCI-H929 cells treated overnight), the “inhibition of trypsin-like activity in live cells” value was “sub-micromolar concentrations”. Also, the IC50 in data set [4] (NCI-H929 cells) was 0.9 µM; in data set [4] (RPMI-8226 cells), 24 µM; in data set [5] (NCI-H929 cells), greater than 30 µM; in data set [5] (RPMI-8226 cells), greater than 30 µM; in data set [7], 16 µM; in data set [8] (NCI-H929 cells) it was greater than 30 µM. Moreover, the IC50 in data set [8] (RPMI-8226 cells) was greater than 30 µM. Besides, the “difference in IC50 for trypsin-like activity between NCI-H929 and RPMI-8226” value in data set [6] stood at 25 fold. In data set [6] (RPMI-8226 cells), the “time to steady-state proteasome inhibition” value is greater than 6 h.

These data come from patent publication US8609610B2, “Inhibitors of the trypsin-like site of the proteasome and methods of use thereof” (Trustees of Dartmouth College, priority 2011, dated 2013).
